Laboratory results published in patent publication EP4813463A2, “TYK2 INHIBITORS AND COMPOSITIONS AND METHODS THEREOF” (Lynk Pharmaceuticals Co. Ltd., priority 2023, dated 2024).
Where two headings read alike, the source gives them in different places.

How the values were obtained:
IFNa pSTAT1 = experiment: Phosphorylation of STAT1 inhibition in HMC3 cells by Jess; format: cell-based; details: Homo sapiens; HMC3 microglia cells, 50ng/mL hINFα 1 hour, Jess western; read-out: Jess_HMC3 IC50 (IFNa pSTAT1)
Description: Seeding HMC3 cells into 12-well plate and incubate overnight. Pre-stimulation with recombinant human IFNα (Sino biological, H08Y), treat cells with compound with different concentration for 1hr. After compound treatment, stimulate HMC3 cells with 50ng/mL hINFα for another 1 hour (for CCF-STTG1 cells IFNα induction time is 30 mins). And then wash cells with DPBS once gently and lyse cells with pre-cooled RIPA buffer (Sigma, R0278-500ML) for 30min on ice to harvest cells. Centrifuge cell lysate for 20 mins at 12000rpm with freezer centrifuge (Thermo Scientific, Heraeus Fresco 21) to extract protein. Prepare samples with Jess Simple Wes kit (SM-WO04) and then run western blot on Jess simple western system (Protein simple, JS-4631). Collect data and analyzed with GraphPad Prism.

TYK2 = biological target: T1, TYK2 (Homo sapiens, UniProt P29597); experiment: TYK2 kinase activity, microfluidic assay (Caliper EZ Reader II, FAM labeled peptide substrate); format: biochemical; details: TYK2 20 nM, 1 mM ATP
T1 construct: purchased Carna Biosciences
T1 sequence (P29597 897-1176 limits assumed): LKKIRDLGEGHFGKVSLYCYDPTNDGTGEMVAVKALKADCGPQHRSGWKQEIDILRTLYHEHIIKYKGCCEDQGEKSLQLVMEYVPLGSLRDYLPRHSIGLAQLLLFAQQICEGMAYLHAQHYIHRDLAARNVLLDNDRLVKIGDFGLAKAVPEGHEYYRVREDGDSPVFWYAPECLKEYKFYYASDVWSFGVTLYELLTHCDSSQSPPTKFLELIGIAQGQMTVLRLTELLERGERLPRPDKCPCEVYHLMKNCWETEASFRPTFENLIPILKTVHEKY
Description: Testing for JAK1, JAK2 and TYK2 Kinase Activities
JAK activity was determined in the reaction buffer 50 mM HEPES, 0.01% Brij35, 10 mM MgCl2, 2 mM DTT by a microfluidic assay. The phosphorylation of a FAM labeled peptide substrate was monitored in the Caliper EZ Reader II (Perkin Elmer). The assay condition for each batch of enzyme (Carna Biosciences) was optimized to obtain 10% conversion rate of peptide substrate.
The test compounds were dissolved in DMSO to a stock concentration of 10 mM. Three-fold serially diluted compounds with top concentration of 5 µM were pre-incubated with JAK1, JAK2 or TYK2 for 10 min at ambient temperature. The final DMSO concentration of assay mixture was 1%. […] The reaction was stopped by adding 50 mM EDTA.
And the well without compound but with equivalent DMSO was defined as no inhibition. The percent inhibition was calculated by the following formula: % Inhibition = (Conversion%_max−Conversion%_sample)/(Conversion%_max−Conversion%_min) × 100 [formula] wherein • Conversion%_ max = the conversion rate in the positive well without addition of compound • Conversion%_ sample = the conversion rate of test compounds • Conversion%_ min = the conversion rate in the well without addition of enzyme
The dose-response (percent inhibition) curve was plotted and IC50 values were determined by GraphPad software. The IC50 values of tested compounds were list in Table 3. Table 3. JAK1, JAK2 and TYK2 IC50 Values of Illustrative Compounds

[1] = Microsomal metabolic stability assay; format: in vitro ADME; details: human, liver microsomes, 0.5 mg/mL microsomal protein, 1 µM test article, 2 mM NADPH; for microsomal CLint at 1 µM: read-out: Human LM Clint; for half-life at 1 µM: read-out: Human LM T1/2
Method in brief: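 Test or control compound (1 µM) incubated with microsomes (0.5 mg/mL protein) in 100 mM potassium phosphate pH 7.4, 1.0 mM EDTA at 37°C, started with NADPH regenerating system (2 mM NADPH). Sampled at 0, 5, 15, 30, 45 min, acetonitrile-quenched, LC/MS/MS. T1/2 from ln %remaining vs time slope; CLint = 0.693/T1/2 per mg protein/mL.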

pSTAT1 = experiment: Phosphorylation inhibition of STAT in human whole blood (IFN-alpha stimulated, flow cytometry); format: cell-based; details: T-cell, 20 min, IFN-alpha stimulation 20 mins, CD3 T cells, read-out: pSTAT1 inhibition in hWB (IC50)
Method in brief: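 Fresh human whole blood stimulated 20 min with human universal type I IFN-alpha, then fixed, permeabilised and stained for CD3 and pSTAT1 (Y701). pSTAT1 in T cells read by flow cytometry; IC50 from 4-parameter logistic fit.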

SMILES | IC50 (IFNa pSTAT1) [nM] | IC50 (TYK2) [nM] | microsomal CLint at 1 µM ([1]; pH 7.4) [µL/min/mg] | half-life at 1 µM ([1]; pH 7.4) [h] | IC50 (pSTAT1) [nM] | microsomal CLint at 1 µM [1] [µL/min/mg]
[2H]C([2H])([2H])O[C@@H](c1ccc2c(c(Nc3cc(NC(=O)C4CC4)ncc3C(=O)OC)nn2C)c1OC)C(F)(F)F [Example 50B, Methyl (S)-6-(cyclopropanecarboxamido)-4-((4-methoxy-1-methyl-5-(2,2,2-trifluoro-1-(methoxy-d3)ethyl)-1H-indazol-3-yl)amino)nicotinate] | 9.3 | > 5000 | 10.9 | 2.11 | 56.5 | –
COC(=O)c1cnc(NC(=O)C2CC2)cc1Nc1nn(C)c2ccc([C@H](OC)C(F)(F)F)c(OC)c12 [Example 45B, Methyl (S)-6-(cyclopropanecarboxamido)-4-((4-methoxy-1-methyl-5-(2,2,2-trifluoro-1-methoxyethyl)-1H-indazol-3-yl)amino)nicotinate] | 4.8 | – | 18.4 | 1.26 | – | –
[2H]C([2H])([2H])NC(=O)c1cnc(NC(=O)C2CC2)cc1Nc1nn(C)c2ccc([C@H](OC([2H])([2H])[2H])C(F)(F)F)c(OC)c12 [Example 55A, (S)-6-(cyclopropanecarboxamido)-4-((4-methoxy-1-methyl-5-(2,2,2-trifluoro-1-(methoxy-d3)ethyl)-1H-indazol-3-yl)amino)-N-(methyl-d3)nicotinamide] | – | > 5000 | – | – | 24.8 | –
COC(=O)c1cnc(NC(=O)C2CC2)cc1Nc1nn(C)c2ccc([C@H](O)C(F)(F)F)c(OC)c12 [Example 48A, Methyl (S)-6-(cyclopropanecarboxamido)-4-((4-methoxy-1-methyl-5-(2,2,2-trifluoro-1-hydroxyethyl)-1H-indazol-3-yl)amino)nicotinate] | 1.03 | > 5000 | – | – | 29.1 | –
[2H]C([2H])([2H])NC(=O)c1cnc(Nc2cc(C)nc(C)n2)cc1Nc1cnn2ccc([C@H](O)C(F)(F)F)c(OC)c12 [Example 25, (S)-6-((2,6-Dimethylpyrimidin-4-yl)amino)-4-((4-methoxy-5-(2,2,2-trifluoro-1-hydroxyethyl)pyrazolo[1,5-a]pyridin-3-yl)amino)-N-(methyl-d3)nicotinamide] | – | > 20000 | – | – | 30.8 | –
[2H]C([2H])([2H])NC(=O)c1cnc(NC(=O)C2CC2)cc1Nc1cnn2ccc([C@@H](O)C(F)(F)F)c(OC)c12 [Example 7B, (R)-6-(cyclopropanecarboxamido)-4-((4-methoxy-5-(2,2,2-trifluoro-1-hydroxyethyl)pyrazolo[1,5-a]pyridin-3-yl)amino)-N-(methyl-d3)nicotinamide] | – | > 20000 | 10.8 | 2.14 | 1000 | –
[2H]C([2H])([2H])NC(=O)c1cnc(NC(=O)C2CC2)cc1Nc1cnn2ccc([C@H](O)C(F)(F)F)c(OC)c12 [Example 7A, (S)-6-(cyclopropanecarboxamido)-4-((4-methoxy-5-(2,2,2-trifluoro-1-hydroxyethyl)pyrazolo[1,5-a]pyridin-3-yl)amino)-N-(methyl-d3)nicotinamide] | 1.04 | > 20000 | 15.6 | 1.48 | 31.1 | –
[2H]C([2H])([2H])NC(=O)c1nnc(NC(=O)C2CC2)cc1Nc1cnn2ccc([C@H](O)C(F)(F)F)c(OC)c12 [Example 30, (S)-6-(cyclopropanecarboxamido)-4-((4-methoxy-5-(2,2,2-trifluoro-1-hydroxyethyl)pyrazolo[1,5-a]pyridin-3-yl)amino)-N-(methyl-d3)pyridazine-3-carboxamide] | – | > 20000 | 17 | 1.36 | 52.2 | –
[2H]C([2H])([2H])NC(=O)c1cnc(NC(=O)C2CC2)cc1Nc1nn(C)c2ccc([C@H](O)C(F)(F)F)c(OC)c12 [Example 49A, (S)-6-(cyclopropanecarboxamido)-4-((4-methoxy-1-methyl-5-(2,2,2-trifluoro-1-hydroxyethyl)-1H-indazol-3-yl)amino)-N-(methyl-d3)nicotinamide] | 0.084 | > 5000 | 19.3 | 1.19 | 10.5 | –
COC(=O)c1cnc(NC(=O)[C@@H]2C[C@@H]2F)cc1Nc1nn(C)c2ccc(C(O)C(F)(F)F)c(OC)c12 (single isomer, unassigned) [Example 122A, Methyl 6-((1S,2S)-2-fluorocyclopropane-1-carboxamido)-4-((4-methoxy-1-methyl-5-((S*)-2,2,2-trifluoro-1-hydroxyethyl)-1H-indazol-3-yl)amino) nicotinate] | 0.239 | – | – | 1.49 | – | 15.5
[2H]C([2H])([2H])NC(=O)c1cnc(Nc2ccn(C)n2)cc1Nc1cnn2ccc([C@H](O)C(F)(F)F)c(OC)c12 [Example 21, (S)-4-((4-methoxy-5-(2,2,2-trifluoro-1-hydroxyethyl)pyrazolo[1,5-a]pyridin-3-yl)amino)-N-(methyl-d3)-6-((1-methyl-1H-pyrazol-3-yl)amino)nicotinamide] | – | > 20000 | 22.8 | 1.01 | 22.7 | –
[2H]C([2H])([2H])NC(=O)c1cnc(NC(=O)C2CC2)cc1Nc1cnn2ccc([C@H](OC)C(F)(F)F)c(OC)c12 [Example 27, (S)-6-(cyclopropanecarboxamido)-4-((4-methoxy-5-(2,2,2-trifluoro-1-methoxyethyl)pyrazolo[1,5-a]pyridin-3-yl)amino)-N-(methyl-d3)nicotinamide] | – | > 20000 | – | – | 51.2 | –
